# Assay results reported in patent US11965039B2, “Compstatin analogues and their medical uses” (priority 2018, dated 2024).
# Starred links: 1 amine or outer side, 2 acyl side, 3 side chain; linkers in the order of their positions; H or OH if unused. Positions of bridges follow the written chain, without caps; N, C: chain ends. Non-standard residues stand in square brackets, D forms with d. Residues, ends and D or L forms follow the SMILES beside them. Groups on a side chain read outwards from the residue. *: point of attachment. Trp(1-Me) = Cn1cc(C[C@H](N)C(=O)O)c2ccccc21; C18 diacid = O=C(O)CCCCCCCCCCCCCCCCC(=O)*; C16 diacid = O=C(O)CCCCCCCCCCCCCCC(=O)*; γGlu = O=C(O)[C@H](CCC(=O)[*:2])N[*:1]; AEEA = NCCOCCOCC(=O)O; Sar = CNCC(=O)O
# System: classical complement pathway
# Assay: In vitro haemolysis assay (inhibition of classical complement pathway)
# Assay type: cell-based, human
# Settings: human serum, sensitized sheep red blood cells; Table 3, given as upper bounds; read-out: IC50, inhibition of hemolysis
# In short: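 Compound dilutions preincubated 15 min at room temperature with diluted human serum (titrated per batch for 70-90% maximal haemolysis), then antibody-sensitized sheep RBC (10^7/well) added for 30 min at 37 °C in Tris/casein buffer, pH 7.4. Stopped with EDTA; haemolysis read at 405 nm; IC50 by 4PL fit.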
row,SMILES,IC50 [nM]
1,CC[C@H](C)[C@@H]1NC(=O)[C@@H](NC(=O)[C@H](Cc2ccc(O)cc2)NC(=O)[C@H](CCC(=O)O)NC(=O)[C@H](CO)NC(C)=O)CSSC[C@@H](C(=O)N(C)CC(=O)N[C@@H](CCC(=O)O)C(=O)N[C@@H](C)C(N)=O)NC(=O)[C@H](CCCNC(=N)N)NC(=O)[C@H](Cc2c[nH]cn2)NC(=O)[C@H](CCC(=O)O)NC(=O)CNC(=O)[C@H](Cc2c[nH]c3ccccc23)NC(=O)[C@H](CC(=O)O)NC(=O)[C@H](CCC(N)=O)NC(=O)[C@H](Cc2cn(C)c3ccccc23)NC1=O [Compound 71] (Ac-SEYCI[Trp(1-Me)]QDWGEHRC[Sar]EA-NH2; disulfide 4-14),< 100
2,CC[C@H](C)[C@@H]1NC(=O)[C@@H](NC(=O)[C@H](Cc2ccccc2)NC(=O)[C@H](CCC(=O)O)NC(=O)[C@H](CO)NC(C)=O)CSSC[C@@H](C(=O)N(C)CC(=O)N[C@@H](CCC(=O)O)C(=O)NCC(=O)N[C@@H](CCC(=O)O)C(=O)NCC(=O)NCC(=O)NCC(=O)N[C@@H](CCCCNC(=O)CC[C@H](NC(=O)CNC(=O)CC[C@H](NC(=O)CCCCCCCCCCCCCCCCC(=O)O)C(=O)O)C(=O)O)C(N)=O)NC(=O)[C@H](CCCNC(=N)N)NC(=O)[C@H](Cc2c[nH]cn2)NC(=O)[C@H](CCC(=O)O)NC(=O)CNC(=O)[C@H](Cc2c[nH]c3ccccc23)NC(=O)[C@H](CC(=O)O)NC(=O)[C@H](CCC(N)=O)NC(=O)[C@H](Cc2cn(C)c3ccccc23)NC1=O [Compound 129] (Ac-SEFCI[Trp(1-Me)]QDWGEHRC[Sar]EGEGGGK([γGlu-Gly-γGlu-C18 diacid])-NH2; disulfide 4-14),< 100
3,CC[C@H](C)[C@@H]1NC(=O)[C@@H](NC(=O)[C@H](Cc2ccccc2)NC(=O)[C@H](CCC(=O)O)NC(=O)[C@H](CO)NC(C)=O)CSSC[C@@H](C(=O)N(C)CC(=O)N[C@@H](CCC(=O)O)C(=O)NCC(=O)N[C@@H](C)C(=O)N[C@@H](CCCCNC(=O)COCCOCCNC(=O)CC[C@H](NC(=O)COCCOCCNC(=O)CNC(=O)CC[C@H](NC(=O)CCCCCCCCCCCCCCCCC(=O)O)C(=O)O)C(=O)O)C(N)=O)NC(=O)[C@H](CCCNC(=N)N)NC(=O)[C@H](Cc2c[nH]cn2)NC(=O)[C@H](CCC(=O)O)NC(=O)CNC(=O)[C@H](Cc2c[nH]c3ccccc23)NC(=O)[C@H](CC(=O)O)NC(=O)[C@H](CCC(N)=O)NC(=O)[C@H](Cc2cn(C)c3ccccc23)NC1=O [Compound 119] (Ac-SEFCI[Trp(1-Me)]QDWGEHRC[Sar]EGAK([AEEA-γGlu-AEEA-Gly-γGlu-C18 diacid])-NH2; disulfide 4-14),< 100
4,CC[C@H](C)[C@@H]1NC(=O)[C@@H](NC(=O)[C@H](Cc2ccccc2)NC(=O)[C@H](CCC(=O)O)NC(=O)[C@H](CO)NC(C)=O)CSSC[C@@H](C(=O)N[C@H](C(=O)N[C@@H](CCC(=O)O)C(=O)NCC(=O)N[C@@H](CCC(=O)O)C(=O)NCC(=O)NCC(=O)NCC(=O)N[C@@H](CCCCNC(=O)CC[C@H](NC(=O)CNC(=O)CC[C@H](NC(=O)CCCCCCCCCCCCCCC(=O)O)C(=O)O)C(=O)O)C(N)=O)[C@@H](C)O)NC(=O)[C@H](CCCNC(=N)N)NC(=O)[C@H](Cc2c[nH]cn2)NC(=O)[C@H](CCC(=O)O)NC(=O)CNC(=O)[C@H](Cc2c[nH]c3ccccc23)NC(=O)[C@H](CC(=O)O)NC(=O)[C@H](CCC(N)=O)NC(=O)[C@H](Cc2cn(C)c3ccccc23)NC1=O [Compound 131] (Ac-SEFCI[Trp(1-Me)]QDWGEHRCTEGEGGGK([γGlu-Gly-γGlu-C16 diacid])-NH2; disulfide 4-14),< 100
